What all share (design): scale not given: the % may be the effect or the level left
Assay [1] concerns the target Enteropeptidase (Homo sapiens) (UniProt P98073). As to the kind of experiment: Inhibition of full length recombinant human EP expressed in CHO cells assessed as protease activity using […] as substrate at 1 uM by fluorescence assay relative to control.
For assay [2], the species on record is Bos taurus. As to the kind of experiment: Inhibition of bovine trypsin assessed as protease activity using D-CHA-AR-AMC as substrate at 1 uM by fluorescence assay relative to control.
The species entered for assay [3] is Bos taurus. In words: Inhibition of bovine trypsin assessed as protease activity using D-CHA-AR-AMC as substrate at 10 uM by fluorescence assay relative to control.
Assay [4] has as its target Enteropeptidase (Homo sapiens) (UniProt P98073). As to the kind of experiment: Inhibition of full length recombinant human EP expressed in CHO cells assessed as protease activity using […] as substrate at 0.1 uM by fluorescence assay relative to control.
The target is the same in assay [5]. In words: Inhibition of full length recombinant human EP expressed in CHO cells assessed as protease activity using […] as substrate at 10 uM by fluorescence assay relative to control.
The species named for assay [6] is Bos taurus. As to the kind of experiment: Inhibition of bovine trypsin assessed as protease activity using D-CHA-AR-AMC as substrate at 0.1 uM by fluorescence assay relative to control.

Enteropeptidase (Homo sapiens), sequence (P98073 2-784 limits assumed): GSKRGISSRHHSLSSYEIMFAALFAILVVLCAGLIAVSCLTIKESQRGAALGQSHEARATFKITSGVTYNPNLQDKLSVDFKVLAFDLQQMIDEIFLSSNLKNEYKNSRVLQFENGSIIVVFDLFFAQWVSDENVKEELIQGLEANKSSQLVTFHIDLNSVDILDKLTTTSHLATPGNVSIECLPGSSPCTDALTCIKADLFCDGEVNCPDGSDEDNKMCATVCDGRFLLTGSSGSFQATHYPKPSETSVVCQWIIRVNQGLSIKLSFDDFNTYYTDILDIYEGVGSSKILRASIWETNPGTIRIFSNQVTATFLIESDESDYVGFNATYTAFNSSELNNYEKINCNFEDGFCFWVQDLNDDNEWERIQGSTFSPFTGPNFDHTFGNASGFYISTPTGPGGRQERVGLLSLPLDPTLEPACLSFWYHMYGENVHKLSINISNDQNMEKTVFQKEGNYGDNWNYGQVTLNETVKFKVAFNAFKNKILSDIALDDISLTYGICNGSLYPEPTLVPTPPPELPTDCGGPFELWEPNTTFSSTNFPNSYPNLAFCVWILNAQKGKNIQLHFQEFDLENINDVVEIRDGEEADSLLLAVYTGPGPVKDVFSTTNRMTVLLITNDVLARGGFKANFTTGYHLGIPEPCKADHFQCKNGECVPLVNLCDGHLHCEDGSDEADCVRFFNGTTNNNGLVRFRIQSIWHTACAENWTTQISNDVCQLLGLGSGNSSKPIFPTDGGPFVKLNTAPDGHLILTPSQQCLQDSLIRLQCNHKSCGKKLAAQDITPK
Enteropeptidase (Homo sapiens), sequence (P98073 785-1019 limits assumed): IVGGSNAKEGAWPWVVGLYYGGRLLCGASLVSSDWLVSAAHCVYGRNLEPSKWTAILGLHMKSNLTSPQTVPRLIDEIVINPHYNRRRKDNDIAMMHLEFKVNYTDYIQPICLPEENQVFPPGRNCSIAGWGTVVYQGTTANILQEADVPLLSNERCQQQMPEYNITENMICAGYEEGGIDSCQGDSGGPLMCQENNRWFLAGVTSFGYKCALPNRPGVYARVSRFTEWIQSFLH

Regarding `N#Cc1cc(C(=O)Oc2ccc(CC(=O)O)n3ncnc23)ccc1NC(=N)N`, the Activity in assay [1] is -6.26%; in the assay filed under Bos taurus [2], 12.3%; in the assay filed under Bos taurus [3] it was 29.9%; in assay [4], -3.01%; in assay [5], 32.1%; in the assay listed under Bos taurus [6], 0.95%.

Consider `N=C(N)Nc1cccc(C(=O)Oc2ccc(CC(=O)O)n3ncnc23)c1`, for which the Activity in assay [1] is -6.7%; in the assay listed under Bos taurus [2], 1.21%; in the assay filed under Bos taurus [3], 18.6%; in assay [4], -11.2%; in assay [5], 6.8%; in the assay listed under Bos taurus [6], -0.24%.

Regarding `CNC(=N)c1ccc(C(=O)Oc2ccc(CC(=O)O)n3ncnc23)cc1`, the Activity was 11.3% in assay [1]; 8.66% in the assay listed under Bos taurus [2]; 66.5% in the assay listed under Bos taurus [3]; -0.79% in assay [4]; 52.3% in assay [5]; 5.66% in the assay filed under Bos taurus [6].

With `N=C(NN)c1ccc(C(=O)Oc2ccc(CC(=O)O)n3ncnc23)cc1`, the Activity in assay [1] was 12.2%; in the assay listed under Bos taurus [2] it was 2.74%; in the assay filed under Bos taurus [3] it was 25.5%; in assay [4], 0.5%; in assay [5] it was 51.8%; in the assay filed under Bos taurus [6], 1.62%.

For the compound `N=C(N)Nc1ccc(C(=O)Oc2ccc(CC(=O)O)n3ncnc23)c(F)c1`, the Activity is 100% in assay [1]; 99.7% in the assay listed under Bos taurus [2]; 100% in the assay filed under Bos taurus [3]; 99.4% in assay [4]; 100% in assay [5]; 97.2% in the assay filed under Bos taurus [6].

Regarding `N=C(N)Nc1ncc(C(=O)Oc2ccc(CC(=O)O)n3ncnc23)cn1`, the Activity in assay [1] is 99.5%; in the assay filed under Bos taurus [2] it was 100%; in the assay listed under Bos taurus [3], 100%; in assay [4] it was 92.1%; in assay [5], 100%; in the assay filed under Bos taurus [6], 96.5%.

`N=C(N)Nc1ccc(C(=O)Oc2ccc(CC(=O)O)n3ncnc23)cc1O`: the Activity in assay [1] turned out to be 92.1%; in the assay filed under Bos taurus [2], 73.1%; in the assay filed under Bos taurus [3], 100%; in assay [4] it was 34.3%; in assay [5] it was 101%; in the assay filed under Bos taurus [6], 12.4%.

Take `COc1cc(C(=O)Oc2ccc(CC(=O)O)n3ncnc23)ccc1NC(=N)N`: the Activity turned out to be 87.1% in assay [1]; 72.4% in the assay filed under Bos taurus [2]; 99.9% in the assay filed under Bos taurus [3]; 20.8% in assay [4]; 101% in assay [5]; 13.8% in the assay listed under Bos taurus [6].

In the case of `O=C(O)Cc1ccc(OC(=O)c2ccc(NC3=NCCN3)cc2)c2ncnn12`, the Activity is -2.47% in assay [1]; -2.97% in the assay filed under Bos taurus [2]; -7.45% in the assay filed under Bos taurus [3]; -0.28% in assay [4]; -2.75% in assay [5]; 0.21% in the assay filed under Bos taurus [6].

On to `O=C(O)Cc1ccc(OC(=O)c2ccc(C3=NCCN3)cc2)c2ncnn12`, for which the Activity in assay [1] was 16.9%; in the assay filed under Bos taurus [2], 2.66%; in the assay filed under Bos taurus [3], 21.6%; in assay [4] it was 4.69%; in assay [5], 58.6%; in the assay filed under Bos taurus [6], -0.36%.

For `N=C(N)Nc1ccc(C(=O)Oc2cc(CC(=O)O)cn3ncnc23)cc1`, the Activity turned out to be 58.8% in assay [1]; 100% in the assay filed under Bos taurus [2]; 100% in the assay listed under Bos taurus [3]; 13.1% in assay [4]; 101% in assay [5]; 81.7% in the assay listed under Bos taurus [6].

`N=C(N)Nc1ccc(C(=O)Oc2ccc(CC(=O)O)n3ncnc23)c(Cl)c1`: the Activity amounted to 100% in assay [1]; 97.6% in the assay listed under Bos taurus [2]; 99.9% in the assay filed under Bos taurus [3]; 81.2% in assay [4]; 100% in assay [5]; 43.5% in the assay filed under Bos taurus [6].

For the compound `N=C1NCCN1c1ccc(C(=O)Oc2ccc(CC(=O)O)n3ncnc23)cc1`, the Activity in assay [1] is 57.9%; in the assay filed under Bos taurus [2] it was 58.3%; in the assay listed under Bos taurus [3], 93%; in assay [4], 10.5%; in assay [5], 93.2%; in the assay listed under Bos taurus [6] it was 10.9%.

As to `CN(C(=N)N)c1ccc(C(=O)Oc2ccc(CC(=O)O)n3ncnc23)cc1`, the Activity amounted to 93.8% in assay [1]; 89.2% in the assay listed under Bos taurus [2]; 98.9% in the assay listed under Bos taurus [3]; 40.5% in assay [4]; 99.3% in assay [5]; 31.4% in the assay listed under Bos taurus [6].

`CC(=N)Nc1ccc(C(=O)Oc2ccc(CC(=O)O)n3ncnc23)cc1`: the Activity in assay [1] worked out at 99.6%; in the assay filed under Bos taurus [2], 68%; in the assay filed under Bos taurus [3] it was 99.7%; in assay [4], 47.8%; in assay [5], 100%; in the assay listed under Bos taurus [6], 11.5%.

On to `C/N=C(\NC)Nc1ccc(C(=O)Oc2ccc(CC(=O)O)n3ncnc23)cc1`, for which the Activity is 1.32% in assay [1]; 0.59% in the assay listed under Bos taurus [2]; 9.42% in the assay filed under Bos taurus [3]; 1.35% in assay [4]; 12.6% in assay [5]; -1.72% in the assay filed under Bos taurus [6].

On to `Cc1cc(C(=O)Oc2ccc(CC(=O)O)n3ncnc23)ccc1NC(=N)N`, for which the Activity was 6.3% in assay [1]; 8.4% in the assay listed under Bos taurus [2]; 35.5% in the assay listed under Bos taurus [3]; 1.3% in assay [4]; 36.7% in assay [5]; 0% in the assay filed under Bos taurus [6].

As to `CONC(=N)c1ccc(C(=O)Oc2ccc(CC(=O)O)n3ncnc23)cc1`, the Activity is 9.05% in assay [1]; -3.33% in the assay listed under Bos taurus [2]; 18.2% in the assay listed under Bos taurus [3]; 2.43% in assay [4]; 34% in assay [5]; -3.11% in the assay listed under Bos taurus [6].

`C/C(=N\O)Nc1ccc(C(=O)Oc2ccc(CC(=O)O)n3ncnc23)cc1`: the Activity in assay [1] was -10.1%; in the assay listed under Bos taurus [2] it was -0.45%; in the assay filed under Bos taurus [3], 10.1%; in assay [4] it was -10.7%; in assay [5], -10.8%; in the assay listed under Bos taurus [6], -8.04%.

For the compound `N=C(N)Nc1ccc(C(=O)Oc2ccc(CC(=O)O)n3ncnc23)s1`, the Activity in assay [1] was determined as 100%; in the assay filed under Bos taurus [2], 99.9%; in the assay listed under Bos taurus [3], 99.8%; in assay [4], 82%; in assay [5], 100%; in the assay filed under Bos taurus [6], 93.8%.

In the case of `Cc1cc(NC(=N)N)ccc1C(=O)Oc1ccc(CC(=O)O)n2ncnc12`, the Activity in assay [1] came out at 59.9%; in the assay listed under Bos taurus [2], 49%; in the assay filed under Bos taurus [3], 99.7%; in assay [4], 10.3%; in assay [5], 101%; in the assay filed under Bos taurus [6], 9.45%.

As to `N=C(N)Nc1ccc(C(=O)Oc2ccc(CC(=O)O)n3ncnc23)c(C(F)(F)F)c1`, the Activity in assay [1] is 38.5%; in the assay filed under Bos taurus [2] it was 16.6%; in the assay listed under Bos taurus [3] it was 88.7%; in assay [4], 4.14%; in assay [5] it was 98.9%; in the assay filed under Bos taurus [6], 2.31%.

Regarding `N=C(N)Nc1ccc(C(=O)Oc2ccc(CC(=O)O)n3ncnc23)cc1Cl`, the Activity in assay [1] was 84.4%; in the assay filed under Bos taurus [2], 56.6%; in the assay filed under Bos taurus [3], 99.8%; in assay [4], 18.2%; in assay [5], 101%; in the assay listed under Bos taurus [6], 6.34%.

As for `N#CNC(=N)c1ccc(C(=O)Oc2ccc(CC(=O)O)n3ncnc23)cc1`, the Activity is 1.9% in assay [1]; 2.46% in the assay filed under Bos taurus [2]; 35.8% in the assay listed under Bos taurus [3]; -1.6% in assay [4]; 13.6% in assay [5]; -2.06% in the assay filed under Bos taurus [6].

The values above are taken from ChEMBL document CHEMBL4819050, “Discovery of a novel series of guanidinebenzoates as gut-restricted enteropeptidase and trypsin dual inhibitors for the treatment of metabolic syndrome” (Bioorg Med Chem Lett, 2021).
